The supplement of paper PMC13380429

Tests used:
Settings in all cases: 72 h
HepG2 [1] = test: drug sensitivity score (DSS) for viability; higher = more toxic; extreme values may be limits of the assay
U2OS [2] = test: as above
Calu-3 [3] = test: as above
Vero E6 [4] = test: as above
Calu-3 [5] = test: relative viability EC50 (midpoint between 100% and the lowest measured viability); higher = less toxic
Vero E6 [6] = test: as above
HepG2 [7] = test: cell viability relative to DMSO; higher = less toxic
Caco-2 [8] = test: as above
U2OS [9] = test: as above
Calu-3 [10] = test: as above
Vero E6 [11] = test: as above
Caco-2 [12] = test: drug sensitivity score (DSS) for viability; higher = more toxic; extreme values may be limits of the assay
Caco-2 [13] = test: relative viability EC50 (midpoint between 100% and the lowest measured viability); higher = less toxic
U2OS [14] = test: as above
HepG2 [15] = test: as above

Row | Compound | drug sensitivity score (HepG2 [1]) | drug sensitivity score (U2OS [2]) | drug sensitivity score (Calu-3 [3]) | drug sensitivity score (Vero E6 [4]) | relative viability EC50 (Calu-3 [5]) [nM] | relative viability EC50 (Vero E6 [6]) [µM] | cell viability (HepG2 [7]; 1 nM) [%] | cell viability (HepG2 [7]; 10 nM) [%] | cell viability (HepG2 [7]; 100 nM) [%] | cell viability (HepG2 [7]; 1000 nM) [%] | cell viability (HepG2 [7]; 10000 nM) [%] | cell viability (Caco-2 [8]; 1 nM) [%] | cell viability (Caco-2 [8]; 10 nM) [%] | cell viability (Caco-2 [8]; 100 nM) [%] | cell viability (Caco-2 [8]; 1000 nM) [%] | cell viability (Caco-2 [8]; 10000 nM) [%] | cell viability (U2OS [9]; 1 nM) [%] | cell viability (U2OS [9]; 10 nM) [%] | cell viability (U2OS [9]; 100 nM) [%] | cell viability (U2OS [9]; 1000 nM) [%] | cell viability (U2OS [9]; 10000 nM) [%] | cell viability (Calu-3 [10]; 1 nM) [%] | cell viability (Calu-3 [10]; 10 nM) [%] | cell viability (Calu-3 [10]; 100 nM) [%] | cell viability (Calu-3 [10]; 1000 nM) [%] | cell viability (Calu-3 [10]; 10000 nM) [%] | cell viability (Vero E6 [11]; 1 nM) [%] | cell viability (Vero E6 [11]; 10 nM) [%] | cell viability (Vero E6 [11]; 100 nM) [%] | cell viability (Vero E6 [11]; 1000 nM) [%] | cell viability (Vero E6 [11]; 10000 nM) [%] | drug sensitivity score (Caco-2 [12]) | relative viability EC50 (Caco-2 [13]) [µM] | relative viability EC50 (U2OS [14]) [µM] | relative viability EC50 (HepG2 [15]) [nM]
1 | CC(O)(CS(=O)(=O)c1ccc(F)cc1)C(=O)Nc1ccc(C#N)c(C(F)(F)F)c1 (stereo not drawn) [bicalutamide] | 0 | 0 | 0 | 0 |  |  |  |  |  |  |  |  |  |  |  |  |  |  |  |  |  |  |  |  |  |  |  |  |  |  |  |  |  |  | 
2 | O=C(/C=C/c1ccc(O)c(O)c1)OCCc1ccccc1 [caffeic-acid-phenethyl-ester] | 2.3 | 1.4 | 0 | 0 | > 10000 | > 10 | 92 | 106 | 99.6 | 90.2 | 73.9 | 92 | 99.6 | 101 | 88.2 | 66.9 | 98.4 | 102 | 98.9 | 99.2 | 69.9 | 95.4 | 97.4 | 99.1 | 94.4 | 90.3 | 96.9 | 101 | 96.4 | 96.4 | 90.6 | 3.2 |  |  | 
3 | CN(C)CCCN1c2ccccc2Sc2ccc(Cl)cc21 [chlorpromazine] | 3.9 | 0.1 | 0.9 | 2.2 |  |  | 96.5 | 102 | 105 | 91.3 | 52.4 | 96.3 | 97.3 | 96.5 | 105 | 88.9 | 98.9 | 100 | 93.6 | 102 | 86.2 | 110 | 97 | 109 | 102 | 73.8 | 98.5 | 98.8 | 97.4 | 99.6 | 56.9 | 0 | > 10 | > 10 | 
4 | CS[C@H]1SC[C@H]2C(=O)N(C)[C@@H](C(C)C)C(=O)OC[C@@H](NC(=O)c3cnc4ccccc4n3)C(=O)N[C@@H](C)C(=O)N(C)[C@@H]1C(=O)N(C)[C@@H](C(C)C)C(=O)OC[C@@H](NC(=O)c1cnc3ccccc3n1)C(=O)N[C@@H](C)C(=O)N2C [echinomycin] | 42.9 | 47.9 | 41.3 | 31.7 | < 1 | 0.024 | 77.1 | 9.7 | 6.7 | 7 | 7.7 | 63.1 | 54.7 | 57.2 | 63.2 | 75.9 | 54.1 | 0.5 | 0.6 | 2.3 | 1.8 | 57.6 | 16 | 27.3 | 35.5 | 36.2 | 104 | 90.4 | 2.1 | 4.6 | 1 | 22.8 |  | 0.0011 | 1.8
5 | C[C@]12CC[C@@H]3c4ccc(O)cc4CC[C@H]3[C@@H]1CCC2=O [estrone] | 0 | 0 | 0 | 0 |  |  |  |  |  |  |  |  |  |  |  |  |  |  |  |  |  |  |  |  |  |  |  |  |  |  |  |  |  |  | 
6 | COc1cc2ncnc(Nc3ccc(F)c(Cl)c3)c2cc1OCCCN1CCOCC1 [gefitinib] | 3.9 | 2.1 | 13.1 | 9.3 | 414 |  |  |  |  |  |  |  |  |  |  |  |  |  |  |  |  |  |  |  |  |  |  |  |  |  |  | 4.1 |  |  | 
7 | CCc1c2c(nc3ccc(OC(=O)N4CCC(N5CCCCC5)CC4)cc13)-c1cc3c(c(=O)n1C2)COC(=O)[C@]3(O)CC [irinotecan] | 14.4 | 3.8 | 6.5 | 1.6 | 679 | > 10 | 95.4 | 99.2 | 76.9 | 37.5 | 21.7 | 95.1 | 91.6 | 95.5 | 90.9 | 61.5 | 104 | 97.4 | 98.1 | 88.7 | 59.1 | 103 | 94.7 | 93.7 | 69.3 | 47.5 | 94.3 | 97.4 | 95.6 | 95.8 | 75.2 | 3.3 |  |  | 244
8 | CO[C@@H]1[C@@H](O[C@@H]2O[C@H](C)[C@@H](O[C@H]3C[C@@](C)(O)[C@@H](OC(=O)CC(C)C)[C@H](C)O3)[C@H](N(C)C)[C@H]2O)[C@@H](CC=O)C[C@@H](C)[C@@H](O)/C=C/C=C/C[C@@H](C)OC(=O)C[C@H]1OC(C)=O [josamycin] | 1.7 | 0 | 0 | 0 | > 10000 | > 10 | 107 | 105 | 117 | 95 | 74.4 | 101 | 94.2 | 100 | 107 | 68 | 101 | 89.3 | 97.5 | 101 | 100 | 103 | 102 | 106 | 98.2 | 106 | 95 | 98.6 | 105 | 92.1 | 99.1 | 1.1 |  | > 10 | 
9 | CC(=O)O[C@]1(C(C)=O)CC[C@H]2[C@@H]3C=C(C)C4=CC(=O)CC[C@]4(C)[C@H]3CC[C@@]21C [megestrol-acetate] | 0 | 0 | 0 | 0 |  |  |  |  |  |  |  |  |  |  |  |  |  |  |  |  |  |  |  |  |  |  |  |  |  |  |  |  |  |  | 
10 | COC(=O)c1ccc(O)cc1 [methylparaben] | 0 | 0 | 0 | 0 |  |  |  |  |  |  |  |  |  |  |  |  |  |  |  |  |  |  |  |  |  |  |  |  |  |  |  |  |  |  | 
11 | CO[C@@H]1[C@H](N(C)C(=O)c2ccccc2)C[C@H]2O[C@]1(C)n1c3ccccc3c3c4c(c5c6ccccc6n2c5c31)C(=O)NC4 [midostaurin] | 9.3 | 8.8 | 7.1 | 7.8 | 885 | 0.793 | 97 | 94 | 93.9 | 53.9 | 44.3 | 108 | 111 | 97.4 | 74.9 | 63.3 | 102 | 99.2 | 103 | 59.6 | 29 | 89.5 | 88.5 | 102 | 67.3 | 43.3 | 110 | 101 | 94.3 | 63.9 | 36 | 4.7 |  | 0.897 | 369
12 | OC(CNCC(O)C1CCc2cc(F)ccc2O1)C1CCc2cc(F)ccc2O1 (stereo not drawn) [nebivolol] | 0 | 0 | 0 | 0 | > 10000 | > 10 | 107 | 112 | 110 | 98.4 | 88.9 | 114 | 102 | 95.1 | 89.7 | 72.8 | 97.2 | 94.3 | 93.9 | 99.8 | 99.6 | 94.9 | 93.2 | 103 | 105 | 92.7 | 100 | 102 | 91.7 | 94.2 | 95.1 | 1.9 |  | > 10 | > 10000
13 | NC(=O)N1c2ccccc2CC(=O)c2ccccc21 [oxcarbazepine] | 0.5 | 0 | 0 |  | > 10000 |  | 90.8 | 92.3 | 115 | 90.7 | 87.5 |  |  |  |  |  | 101 | 100 | 101 | 96.7 | 99.1 | 96.1 | 93.6 | 82.6 | 105 | 95.1 |  |  |  |  |  |  |  | > 10 | > 10000
14 | CCN1CCCC(OC(=O)C(c2ccccc2)c2ccccc2)C1 (stereo not drawn) [piperidolate] | 0 | 0 | 0 | 0 | > 10000 | > 10 | 105 | 89.1 | 115 | 97.8 | 110 | 89 | 90.3 | 70.2 | 79.2 | 77.9 | 98.4 | 100 | 100 | 100 | 92.4 | 99.1 | 95.2 | 102 | 105 | 89.3 | 98.8 | 98.7 | 98 | 98 | 98.2 | 7 |  | > 10 | > 10000
15 | O=C(O)C[C@H](O)C[C@H](O)/C=C/c1c(C2CC2)nc2ccccc2c1-c1ccc(F)cc1 [pitavastatin] | 2.9 | 9.4 | 4.4 | 8.5 |  | 1.62 | 88.5 | 97.1 | 82 | 95.7 | 57.1 | 103 | 93.6 | 97.3 | 89.4 | 70.3 | 98.7 | 97 | 100 | 68.3 | 9.6 | 103 | 98.1 | 99.2 | 84.7 | 56.4 | 93.9 | 105 | 88.7 | 78 | 6.4 | 2.4 |  | 1.28 | 
16 | CC[C@H](CO)Nc1nc(NCc2ccccc2)c2ncn(C(C)C)c2n1 [roscovitine] | 0 | 0 | 0 | 0 |  |  |  |  |  |  |  |  |  |  |  |  |  |  |  |  |  |  |  |  |  |  |  |  |  |  |  |  |  |  | 
17 | N=C(N)NS(=O)(=O)c1ccc(N)cc1 [sulfaguanidine] | 0 | 0 | 0 | 0 |  |  |  |  |  |  |  |  |  |  |  |  |  |  |  |  |  |  |  |  |  |  |  |  |  |  |  |  |  |  | 
18 | Cc1ccc(C(C)C)c(O)c1 [thymol] | 0 | 0 | 0 | 0 |  |  |  |  |  |  |  |  |  |  |  |  |  |  |  |  |  |  |  |  |  |  |  |  |  |  |  |  |  |  | 
19 | Cn1ncc(Cl)c1-c1cc(C(=O)N[C@H](CN)Cc2ccc(F)c(F)c2)oc1Cl [uprosertib] | 3.3 | 1.4 | 5.8 | 0.8 | 693 | > 10 | 101 | 97.4 | 101 | 85.2 | 68.4 | 98.7 | 99.3 | 86.2 | 71.5 | 53.9 | 95.1 | 99.8 | 94.5 | 96.5 | 76.3 | 104 | 107 | 78.4 | 80.5 | 49.9 | 106 | 102 | 102 | 94.9 | 83.6 | 6.5 |  | > 10 | 
20 | Cc1cccc(OCC(O)CNC(C)(C)C)c1C (stereo not drawn) [xibenolol] |  | 0 | 0 | 0 | > 10000 | > 10 |  |  |  |  |  | 74.6 | 95.8 | 80.1 | 94.3 | 100 | 102 | 97.4 | 99.2 | 94.6 | 110 | 106 | 92.9 | 95.6 | 101 | 103 | 104 | 99.3 | 100 | 107 | 95.4 | 0.7 |  | > 10 | 
